#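 GI50 marks 50% less growth. TGI denotes the concentration required for complete inhibition of growth.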
# What was measured:
# Assay in all cases: NCI-60 cell line screen, 384-well format
# [1] = test system: 786-0 renal
# [2] = test system: A498 renal
# [3] = test system: A549 NSCLC
# [4] = test system: ACHN renal
# [5] = test system: BT-549 breast
# [6] = test system: CAKI-1 renal
# [7] = test system: CCRF-CEM leukemia
# [8] = test system: COLO 205 colon
# [9] = test system: DU-145 prostate
# [10] = test system: EKVX NSCLC
# [11] = test system: HCC-2998 colon
# [12] = test system: HCT-116 colon
# [13] = test system: HCT-15 colon
# [14] = test system: HL-60(TB) leukemia
# [15] = test system: HOP-62 NSCLC
# [16] = test system: HOP-92 NSCLC
# [17] = test system: HS 578T breast
# [18] = test system: HT29 colon
# [19] = test system: IGROV1 ovarian
# [20] = test system: K-562 leukemia
# [21] = test system: KM12 colon
# [22] = test system: LOX IMVI melanoma
# [23] = test system: M14 melanoma
# [24] = test system: MALME-3M melanoma
# [25] = test system: MCF7 breast
# [26] = test system: MDA-MB-231 breast
# [27] = test system: MDA-MB-435 melanoma
# [28] = test system: MDA-MB-468 breast
# [29] = test system: MOLT-4 leukemia
# [30] = test system: NCI-H226 lung
# [31] = test system: NCI-H23 lung
# [32] = test system: NCI-H322M lung
# [33] = test system: NCI-H460 NSCLC
# [34] = test system: NCI-H522 lung
# [35] = test system: NCI/ADR-RES ovarian
# [36] = test system: OVCAR-3 ovarian
# [37] = test system: OVCAR-4 ovarian
# [38] = test system: OVCAR-5 ovarian
# [39] = test system: OVCAR-8 ovarian
# [40] = test system: PC-3 prostate
# [41] = test system: RPMI-8226 leukemia
# [42] = test system: RXF 393 renal
# [43] = test system: SF-268 CNS
# [44] = test system: SF-295 CNS
# [45] = test system: SF-539 CNS
# [46] = test system: SK-MEL-28 melanoma
# [47] = test system: SK-MEL-5 melanoma
# [48] = test system: SK-OV-3 ovarian
# [49] = test system: SN12C renal
# [50] = test system: SNB-19 CNS
# [51] = test system: SNB-75 CNS
# [52] = test system: SW-620 colon
# [53] = test system: T-47D breast
# [54] = test system: TK-10 renal
# [55] = test system: U251 glioblastoma
# [56] = test system: UACC-257 melanoma
# [57] = test system: UACC-62 melanoma
# [58] = test system: UO-31 renal
smiles,measurement,setting,value
COc1ccc(Oc2cc(NCCC(F)(F)F)c3ncc(-c4ccc(C(=O)NC5CC5)c(C)c4)n3n2)c(F)c1F,GI50,[1],< 0.01 µM
same,TGI,[1],14.3 µM
same,GI50,[2],0.189 µM
same,TGI,[2],7.86 µM
same,GI50,[3],< 0.01 µM
same,TGI,[3],18.4 µM
same,GI50,[4],0.169 µM
same,TGI,[4],26.9 µM
same,GI50,[5],0.256 µM
same,TGI,[5],17 µM
same,GI50,[6],0.208 µM
same,TGI,[6],2.48 µM
same,GI50,[7],< 0.01 µM
same,TGI,[7],< 0.01 µM
same,GI50,[8],< 0.01 µM
same,TGI,[8],> 100 µM
same,GI50,[9],< 0.01 µM
same,TGI,[9],> 100 µM
same,GI50,[10],5.88 µM
same,TGI,[10],84.2 µM
same,GI50,[11],13.1 µM
same,TGI,[11],> 100 µM
same,GI50,[12],< 0.01 µM
same,TGI,[12],> 100 µM
same,GI50,[13],< 0.01 µM
same,TGI,[13],12.2 µM
same,GI50,[14],< 0.01 µM
same,TGI,[14],< 0.01 µM
same,GI50,[15],< 0.01 µM
same,TGI,[15],4.93 µM
same,GI50,[16],1.16 µM
same,TGI,[16],14.5 µM
same,GI50,[17],0.0204 µM
same,TGI,[17],2.32 µM
same,GI50,[18],< 0.01 µM
same,TGI,[18],> 100 µM
same,GI50,[19],0.337 µM
same,TGI,[19],46.4 µM
same,GI50,[20],0.264 µM
same,TGI,[20],> 100 µM
same,GI50,[21],0.271 µM
same,TGI,[21],> 100 µM
same,GI50,[22],< 0.01 µM
same,TGI,[22],11.5 µM
same,GI50,[23],0.0101 µM
same,TGI,[23],15.2 µM
same,GI50,[24],0.182 µM
same,TGI,[24],26.7 µM
same,GI50,[25],1.75 µM
same,TGI,[25],85 µM
same,GI50,[26],0.365 µM
same,TGI,[26],30.1 µM
same,GI50,[27],0.286 µM
same,TGI,[27],70 µM
same,GI50,[28],< 0.01 µM
same,TGI,[28],3.47 µM
same,GI50,[29],< 0.01 µM
same,TGI,[29],< 0.01 µM
same,GI50,[30],4.83 µM
same,TGI,[30],54.4 µM
same,GI50,[31],< 0.01 µM
same,TGI,[31],29.6 µM
same,GI50,[32],2.14 µM
same,TGI,[32],> 100 µM
same,GI50,[33],< 0.01 µM
same,TGI,[33],1.17 µM
same,GI50,[34],0.682 µM
same,TGI,[34],14.3 µM
same,GI50,[35],< 0.01 µM
same,TGI,[35],0.568 µM
same,GI50,[36],0.365 µM
same,TGI,[36],17.5 µM
same,GI50,[37],13.9 µM
same,TGI,[37],67 µM
same,GI50,[38],0.977 µM
same,TGI,[38],> 100 µM
same,GI50,[39],< 0.01 µM
same,TGI,[39],3.68 µM
same,GI50,[40],1.43 µM
same,TGI,[40],28.8 µM
same,GI50,[41],< 0.01 µM
same,TGI,[41],24.5 µM
same,GI50,[42],< 0.01 µM
same,TGI,[42],0.932 µM
same,GI50,[43],< 0.01 µM
same,TGI,[43],< 0.01 µM
same,GI50,[44],1.41 µM
same,TGI,[44],31.2 µM
same,GI50,[45],< 0.01 µM
same,TGI,[45],2.11 µM
same,GI50,[46],9.92 µM
same,TGI,[46],40.7 µM
same,GI50,[47],< 0.01 µM
same,TGI,[47],18.5 µM
same,GI50,[48],0.459 µM
same,TGI,[48],27 µM
same,GI50,[49],18.5 µM
same,TGI,[49],> 100 µM
same,GI50,[50],2.8 µM
same,TGI,[50],39.8 µM
same,GI50,[51],0.0544 µM
same,TGI,[51],13.3 µM
same,GI50,[52],< 0.01 µM
same,TGI,[52],18.5 µM
same,GI50,[53],2.11 µM
same,TGI,[53],34.8 µM
same,GI50,[54],5.83 µM
same,TGI,[54],62.2 µM
same,GI50,[55],< 0.01 µM
same,TGI,[55],17.4 µM
same,GI50,[56],3.09 µM
same,TGI,[56],25.4 µM
same,GI50,[57],0.0441 µM
same,TGI,[57],8.83 µM
same,GI50,[58],< 0.01 µM
same,TGI,[58],20 µM
CNC(=O)c1cc2c(Oc3ccc(NC(=S)NC(=O)Cc4ccccc4)cc3F)ccnc2cc1OC,GI50,[1],8.3 µM
same,TGI,[1],99.7 µM
same,GI50,[2],8.59 µM
same,TGI,[2],81.7 µM
same,GI50,[3],12.3 µM
same,TGI,[3],> 100 µM
same,GI50,[4],5.11 µM
same,TGI,[4],54.5 µM
same,GI50,[5],3.42 µM
same,TGI,[5],9.66 µM
same,GI50,[6],4.55 µM
same,TGI,[6],17.5 µM
same,GI50,[7],5.36 µM
same,TGI,[7],28.8 µM
same,GI50,[8],12.1 µM
same,TGI,[8],> 100 µM
same,GI50,[9],34.8 µM
same,TGI,[9],> 100 µM
same,GI50,[10],28.9 µM
same,TGI,[10],> 100 µM
same,GI50,[11],> 100 µM
same,TGI,[11],> 100 µM
same,GI50,[12],21 µM
same,TGI,[12],> 100 µM
same,GI50,[13],8.36 µM
same,TGI,[13],> 100 µM
same,GI50,[14],29.2 µM
same,TGI,[14],> 100 µM
same,GI50,[15],17.9 µM
same,TGI,[15],> 100 µM
same,GI50,[16],1.5 µM
same,TGI,[16],7.58 µM
same,GI50,[17],2.49 µM
same,TGI,[17],7.12 µM
same,GI50,[18],5.67 µM
same,TGI,[18],> 100 µM
same,GI50,[19],3.03 µM
same,TGI,[19],17 µM
same,GI50,[20],0.486 µM
same,TGI,[20],1.7 µM
same,GI50,[21],3.4 µM
same,TGI,[21],> 100 µM
same,GI50,[22],8.61 µM
same,TGI,[22],> 100 µM
same,GI50,[23],8.36 µM
same,TGI,[23],> 100 µM
same,GI50,[24],15.9 µM
same,TGI,[24],> 100 µM
same,GI50,[25],14.5 µM
same,TGI,[25],> 100 µM
same,GI50,[26],7.39 µM
same,TGI,[26],83.2 µM
same,GI50,[27],31.1 µM
same,TGI,[27],> 100 µM
same,GI50,[28],5.2 µM
same,TGI,[28],25.2 µM
same,GI50,[29],2.2 µM
same,TGI,[29],10.6 µM
same,GI50,[30],4.01 µM
same,TGI,[30],45.7 µM
same,GI50,[31],1.95 µM
same,TGI,[31],23.7 µM
same,GI50,[32],31.9 µM
same,TGI,[32],> 100 µM
same,GI50,[33],20.1 µM
same,TGI,[33],> 100 µM
same,GI50,[34],5.3 µM
same,TGI,[34],27.1 µM
same,GI50,[35],18.8 µM
same,TGI,[35],> 100 µM
same,GI50,[36],17.7 µM
same,TGI,[36],> 100 µM
same,GI50,[37],27.4 µM
same,TGI,[37],> 100 µM
same,GI50,[38],19.9 µM
same,TGI,[38],93.3 µM
same,GI50,[39],36.2 µM
same,TGI,[39],> 100 µM
same,GI50,[40],10.9 µM
same,TGI,[40],> 100 µM
same,GI50,[41],14.7 µM
same,TGI,[41],> 100 µM
same,GI50,[42],2.47 µM
same,TGI,[42],6.88 µM
same,GI50,[43],2.5 µM
same,TGI,[43],6.66 µM
same,GI50,[44],2.25 µM
same,TGI,[44],37.2 µM
same,GI50,[45],5.2 µM
same,TGI,[45],27.8 µM
same,GI50,[46],29.4 µM
same,TGI,[46],> 100 µM
same,GI50,[47],8.55 µM
same,TGI,[47],33.1 µM
same,GI50,[48],9.39 µM
same,TGI,[48],36.2 µM
same,GI50,[49],2.37 µM
same,TGI,[49],19.5 µM
same,GI50,[50],49 µM
same,TGI,[50],> 100 µM
same,GI50,[51],1.9 µM
same,TGI,[51],6.95 µM
same,GI50,[52],47.2 µM
same,TGI,[52],> 100 µM
same,GI50,[53],5.05 µM
same,TGI,[53],26 µM
same,GI50,[54],24.3 µM
same,TGI,[54],> 100 µM
same,GI50,[55],18.8 µM
same,TGI,[55],> 100 µM
same,GI50,[56],18.9 µM
same,TGI,[56],> 100 µM
same,GI50,[57],5.44 µM
same,TGI,[57],95.4 µM
same,GI50,[58],23 µM
same,TGI,[58],> 100 µM
